These are literature values, as cited in patent US11147270B2, “Pesticide based on formation of formate anion in situ” (priority 2018, dated 2021).

For this data set the following is noted: at 20° C.

As to `Cl` [hydrochloric acid], the vapor pressure entry is recorded as “approximately 32452 mmHg”.
